The values below come from patent US11180501B2, “Crystal form of β-lactamase inhibitor and preparation method therefor” (priority 2017, dated 2021).

One series is described as follows: pKa of side-chain group. In kind it is physicochemical. The settings on record: guanidinoxy group.
Series [1] is described as follows: Study on polymorphism, solvent scheme 1 (suspension). Format: physicochemical. The settings on record: 40° C. in the dark for 2 days, XRPD. How it is done:
1. Three samples of about 35 mg of the compound of formula (I) were weighed and placed into 1.5 mL borosilicate glass bottles, respectively, followed by addition of 200 μL of solvent (see Table 2 for the solvent scheme). The obtained mixture was mixed evenly with ultrasound and then placed on a thermostatic oscillator, stirred at 40° C. in the dark for 2 days, and centrifuged quickly. The obtained solid was subjected to XRPD detection (wet product), and then dried in a vacuum dryer at 30° C. for about 15 hours. The obtained dry product was subjected to XPRD detection (dry product).

The nature of series [2]: Study on polymorphism, solvent scheme 2 (dissolved, evaporated to dryness). The following applies: 40° C. 2 days, XRPD. Format: physicochemical. How it is done:
2. Three samples of about 35 mg of compound of formula (I) were weighed and placed into 1.5 mL borosilicate glass bottles, respectively, followed by addition of 600 μL of a solvent (see Table 3 for the solvent scheme). The obtained mixture was mixed evenly with ultrasound and then placed on a thermostatic oscillator, stirred at 40° C. in the dark for 2 days. Then the samples was placed into a fume hood and evaporated to dryness. The obtained samples were subjected to XRPD detection (wet product). The samples were placed in a vacuum dryer and dried at 30° C. for about 15 hours. The obtained dried samples were subjected to XRPD detection (dry product).

Series [3] relates to KPC-2 carbapenemase-producing Klebsiella Pneumoniae. Put plainly: In vitro synergistic inhibitory concentration (SIC) assay, broth microdilution MIC. Format: cell-based. The settings on record: in combination with an antibiotic; KPC-2 type. How it is done:
(§1) The minimum inhibitory concentration (MIC) of the compound of formula (I) against clinically isolated carbapenemase-producing strains was determined by the broth microdilution method.
(§2) 1. Drug susceptibility test: the MIC of commonly used antibacterial drugs against clinically isolated bacteria was determined by the broth microdilution method according to the antimicrobial susceptibility test method described in the 2016 edition of the U.S. Clinical and Laboratory Standards Institute (CLSI) document.
(§3) 2. Strains: 8 KPC-2 carbapenemase-producing strains, 8 NDM-1 metalloenzyme-producing strains, 6 OXA carbapenemase-producing strains, and all strains were clinically isolated Klebsiella pneumoniae.
(§4) 4. Quality control strains: the quality control strains for the drug susceptibility test included Escherichia coli ATCC 25922 and ATCC 35218.
A general note: In broth dilution the organism is exposed to a series of concentrations in liquid medium.

Series [4] concerns NDM-1 carbapenemase-producing Klebsiella Pneumoniae. The description is as above. In kind it is cell-based. How it is done: as §1, §2, §3, §4
Series [5] has as its system OXA-181 carbapenemase-producing Klebsiella Pneumoniae. Described as above. The following applies: in combination with an antibiotic; OXA-181 type. Format: cell-based. How it is done:
as §1, §2
2. […]
as §4

The test system of series [6] is Klebsiella pneumoniae (ATCC BAA-1705, KPC-2). Put plainly: Mouse lung infection model. In kind it is in vivo. The following applies: female CD-1 mice, ip, with ceftazidime, FIG. 5. How it is done:
Female CD-1 mice of about 7 weeks old, weighing 26-28 g; cyclophosphamide was injected at a dose of 150 mg/kg 4 days before infection, and further 100 mg/kg 1 day before infection; the bacteria for infection was Klebsiella pneumoniae (ATCC BAA-1705, KPC-2). The compound of formula (I) and the reference compound OP-0595 were synthesized in the laboratory.
Female CD-1 mice were infected with Klebsiella pneumoniae by intranasal instillation. Each mouse was instilled with 50 μL of bacterial liquid through nasal cavity at a dose of 3.14E+07 CFU per mouse. At 2 h, 4 h, 6 h and 8 h after infection, each group of mice were treated with a corresponding compound or a combination of compounds by intraperitoneal injection.
At 10 h after infection, the mice in groups 1, 2 and 3 were euthanized, and the lungs were taken out and placed in 50 mL centrifuge tubes containing 10 mL of sterile normal saline, the tubes were placed on wet ice and transferred to BSL-2 laboratory for CFU counting. […]
The lungs were ground with an IKA T10 homogenizer (the maximum speed was 20S, repeated once). […] After 24 hours, the plate was taken out and the number of single colonies grown in each homogenate with a gradient dilution on the plate was counted, and the amount of bacterial load in the lung of each mouse was calculated.

Broadly, the pKa is the pH at which an ionisable group is half protonated. Higher therefore signals a weaker acid or stronger base.

As to `N=C(N)NOCCONC(=O)C1CCC2CN1C(=O)N2OS(=O)(=O)O` (stereo not shown) [the compound of formula (I)], the pKa in “pKa of side-chain group” came to 8.83. For the same compound, the Crystal form result in series [1] (Acetone), in series [1] (Acetonitrile), in series [1] (Cyclohexane), in series [1] (Ethanol), in series [1] (Ethanol-water (volume ratio 1:1)) and in series [1] (Ethanol-water (volume ratio 3:1)) was “Crystal form A” each time. Further, the Crystal form entry in series [1] (Ethyl acetate), in series [1] (Isopropanol-water (volume ratio 1:1)), in series [1] (Methanol), in series [1] (Methanol-water (volume ratio 1:1)), in series [1] (Methanol-water (volume ratio 3:1)) and in series [1] (Tetrahydrofuran) was “Crystal form A” in each case. For the same compound, the Crystal form entry in series [1] (Water), in series [2] (Acetone-water (volume ratio 1:2)) and in series [2] (Acetonitrile-water (volume ratio 1:1)) was “Crystal form A” throughout. For the same compound, the “antibacterial activity (conclusion)” value in series [3] is reported as “strong antibacterial activity”; in series [4] (in combination with an antibiotic, NDM-1 type) it was “strong antibacterial activity”; in series [5], “strong antibacterial activity”. For the same compound, the “inhibitory activity compared with avibactam” value in series [4] (NDM-1 type carbapenemase-producing bacteria) is “significantly better than that of avibactam”. Besides, the “reduction of the amount of bacterial load in the lung versus the reference group of OP-0595” value in series [6] (at two different doses (25 & 6.25 mpk; 50 & 12.5 mpk)) is 0.5-1.5 logs. The “potency compared with OP-0595” value in series [6] is on record as “significantly more potent than the reference compound OP-0595”.
